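Five compound concentrations were applied to cells in 96-well plates for 48 hours; endpoints were derived by simple linear interpolation of the resulting dose-response curve. TGI: total growth inhibition.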
Tests used:
Experiment in all cases: NCI tumour cell line growth inhibition, 48 h
[1] = test system: 786-0 renal
[2] = test system: A498 renal
[3] = test system: A549 NSCLC
[4] = test system: ACHN renal
[5] = test system: BT-549 breast
[6] = test system: CAKI-1 renal
[7] = test system: CCRF-CEM leukemia
[8] = test system: COLO 205 colon
[9] = test system: DU-145 prostate
[10] = test system: EKVX NSCLC
[11] = test system: HCC-2998 colon
[12] = test system: HCT-116 colon
[13] = test system: HCT-15 colon
[14] = test system: HL-60(TB) leukemia
[15] = test system: HOP-62 NSCLC
[16] = test system: HOP-92 NSCLC
[17] = test system: HS 578T breast
[18] = test system: HT29 colon
[19] = test system: IGROV1 ovarian
[20] = test system: K-562 leukemia
[21] = test system: KM12 colon
[22] = test system: LOX IMVI melanoma
[23] = test system: M14 melanoma
[24] = test system: MALME-3M melanoma
[25] = test system: MCF7 breast
[26] = test system: MDA-MB-231 breast
[27] = test system: MDA-MB-435
[28] = test system: MDA-N
[29] = test system: MOLT-4 leukemia
[30] = test system: NCI-H226 lung
[31] = test system: NCI-H23 lung
[32] = test system: NCI-H460 lung
[33] = test system: NCI-H522 lung
[34] = test system: NCI/ADR-RES ovarian
[35] = test system: OVCAR-3 ovarian
[36] = test system: OVCAR-4 ovarian
[37] = test system: OVCAR-5 ovarian
[38] = test system: OVCAR-8 ovarian
[39] = test system: PC-3 prostate
[40] = test system: RPMI-8226 leukemia
[41] = test system: RXF 393 renal
[42] = test system: SF-268 CNS
[43] = test system: SF-295 CNS
[44] = test system: SF-539 CNS
[45] = test system: SK-MEL-2 melanoma
[46] = test system: SK-MEL-28 melanoma
[47] = test system: SK-MEL-5 melanoma
[48] = test system: SK-OV-3 ovarian
[49] = test system: SN12C renal
[50] = test system: SNB-19 CNS
[51] = test system: SNB-75 CNS
[52] = test system: SR leukemia
[53] = test system: SW-620 colon
[54] = test system: T-47D breast
[55] = test system: TK-10 renal
[56] = test system: U251 CNS
[57] = test system: UACC-257 melanoma
[58] = test system: UACC-62 melanoma
[59] = test system: UO-31 renal

SMILES: COC(=O)[C@@H]1C[C@H]([Se]c2ccccc2)CN1C(=O)OCc1ccccc1
- TGI [1]: > 100 µM
- TGI [2]: > 100 µM
- TGI [3]: > 100 µM
- TGI [4]: > 100 µM
- TGI [5]: 60.7 µM
- TGI [6]: > 100 µM
- TGI [7]: > 100 µM
- TGI [8]: 54.5 µM
- TGI [9]: > 100 µM
- TGI [10]: > 100 µM
- TGI [11]: > 100 µM
- TGI [12]: > 100 µM
- TGI [13]: > 100 µM
- TGI [14]: 66 µM
- TGI [15]: > 100 µM
- TGI [16]: > 100 µM
- TGI [17]: > 100 µM
- TGI [18]: 70.4 µM
- TGI [19]: > 100 µM
- TGI [20]: > 100 µM
- TGI [21]: > 100 µM
- TGI [22]: 26.5 µM
- TGI [23]: > 100 µM
- TGI [24]: 77.2 µM
- TGI [25]: 41.5 µM
- TGI [26]: > 100 µM
- TGI [27]: 65 µM
- TGI [28]: 68.2 µM
- TGI [29]: 66.8 µM
- TGI [30]: > 100 µM
- TGI [31]: 99.2 µM
- TGI [32]: 86.1 µM
- TGI [33]: > 100 µM
- TGI [34]: > 100 µM
- TGI [35]: 67.1 µM
- TGI [36]: > 100 µM
- TGI [37]: > 100 µM
- TGI [38]: > 100 µM
- TGI [39]: > 100 µM
- TGI [40]: 71.8 µM
- TGI [41]: 84.3 µM
- TGI [42]: > 100 µM
- TGI [43]: > 100 µM
- TGI [44]: > 100 µM
- TGI [45]: 42.2 µM
- TGI [46]: 69.2 µM
- TGI [47]: 30.6 µM
- TGI [48]: > 100 µM
- TGI [49]: > 100 µM
- TGI [50]: > 100 µM
- TGI [51]: > 100 µM
- TGI [52]: > 100 µM
- TGI [53]: > 100 µM
- TGI [54]: > 100 µM
- TGI [55]: > 100 µM
- TGI [56]: > 100 µM
- TGI [57]: > 100 µM
- TGI [58]: 35.8 µM
- TGI [59]: 95.3 µM

SMILES: CC(C)C1OC(/C=C/c2ccccc2)OCC1(C)C (stereo unspecified)
- TGI [1]: > 100 µM
- TGI [2]: 63.7 µM
- TGI [3]: > 100 µM
- TGI [4]: > 100 µM
- TGI [5]: > 100 µM
- TGI [6]: > 100 µM
- TGI [7]: 41.8 µM
- TGI [8]: 31.2 µM
- TGI [9]: > 100 µM
- TGI [10]: 82.3 µM
- TGI [11]: 38.5 µM
- TGI [12]: 92 µM
- TGI [13]: > 100 µM
- TGI [14]: 38.3 µM
- TGI [15]: > 100 µM
- TGI [16]: 52.5 µM
- TGI [17]: 88.7 µM
- TGI [18]: > 100 µM
- TGI [19]: > 100 µM
- TGI [20]: > 100 µM
- TGI [21]: > 100 µM
- TGI [22]: 36.6 µM
- TGI [23]: > 100 µM
- TGI [24]: 25.8 µM
- TGI [25]: > 100 µM
- TGI [26]: 94.7 µM
- TGI [27]: > 100 µM
- TGI [28]: > 100 µM
- TGI [30]: 63 µM
- TGI [31]: 98.9 µM
- TGI [32]: 39.9 µM
- TGI [33]: 32.2 µM
- TGI [34]: > 100 µM
- TGI [35]: 44.9 µM
- TGI [36]: > 100 µM
- TGI [37]: > 100 µM
- TGI [38]: > 100 µM
- TGI [39]: > 100 µM
- TGI [40]: 47 µM
- TGI [41]: 42.3 µM
- TGI [42]: > 100 µM
- TGI [43]: > 100 µM
- TGI [45]: 37.5 µM
- TGI [46]: > 100 µM
- TGI [47]: 37.5 µM
- TGI [48]: > 100 µM
- TGI [49]: 44 µM
- TGI [50]: > 100 µM
- TGI [51]: 78.6 µM
- TGI [52]: > 100 µM
- TGI [53]: > 100 µM
- TGI [54]: > 100 µM
- TGI [55]: 80.8 µM
- TGI [56]: 60.8 µM
- TGI [57]: 63.6 µM
- TGI [58]: > 100 µM
- TGI [59]: > 100 µM

Source: PubChem BioAssay (NCI)
